Structures can show the parent of a compound that is named as a salt.
Columns and labels:
[1] = target: Carboxylic ester hydrolase (Equus caballus, UniProt Q9N1N9); experiment: Enzyme Assay
Description: (§1) Enzyme activity using acetylcholinesterase (AChE) and butyrylcholinesterase (BChE).

Acetylcholinesterase = Acetylcholinesterase (Electrophorus electricus, UniProt O42275); experiment: Enzyme Assay
Description: as §1

Chain of Acetylcholinesterase (O42275 whole entry): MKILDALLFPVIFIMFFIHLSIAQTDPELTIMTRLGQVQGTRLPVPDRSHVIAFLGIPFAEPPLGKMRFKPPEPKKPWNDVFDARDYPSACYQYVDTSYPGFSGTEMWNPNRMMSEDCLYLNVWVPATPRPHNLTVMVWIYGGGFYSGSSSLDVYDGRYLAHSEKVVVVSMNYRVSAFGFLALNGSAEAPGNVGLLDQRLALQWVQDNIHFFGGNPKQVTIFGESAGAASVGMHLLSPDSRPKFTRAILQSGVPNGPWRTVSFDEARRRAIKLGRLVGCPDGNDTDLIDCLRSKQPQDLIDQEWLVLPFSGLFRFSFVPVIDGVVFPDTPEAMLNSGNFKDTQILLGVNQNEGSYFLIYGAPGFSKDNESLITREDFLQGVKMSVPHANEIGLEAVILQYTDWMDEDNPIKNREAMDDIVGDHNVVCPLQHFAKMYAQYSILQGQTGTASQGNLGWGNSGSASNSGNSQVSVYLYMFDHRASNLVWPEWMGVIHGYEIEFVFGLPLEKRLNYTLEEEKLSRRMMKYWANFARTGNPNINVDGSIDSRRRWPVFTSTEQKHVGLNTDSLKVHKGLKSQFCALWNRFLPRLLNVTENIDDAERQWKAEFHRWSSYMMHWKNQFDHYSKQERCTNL
Chain of Carboxylic ester hydrolase (Q9N1N9 whole entry): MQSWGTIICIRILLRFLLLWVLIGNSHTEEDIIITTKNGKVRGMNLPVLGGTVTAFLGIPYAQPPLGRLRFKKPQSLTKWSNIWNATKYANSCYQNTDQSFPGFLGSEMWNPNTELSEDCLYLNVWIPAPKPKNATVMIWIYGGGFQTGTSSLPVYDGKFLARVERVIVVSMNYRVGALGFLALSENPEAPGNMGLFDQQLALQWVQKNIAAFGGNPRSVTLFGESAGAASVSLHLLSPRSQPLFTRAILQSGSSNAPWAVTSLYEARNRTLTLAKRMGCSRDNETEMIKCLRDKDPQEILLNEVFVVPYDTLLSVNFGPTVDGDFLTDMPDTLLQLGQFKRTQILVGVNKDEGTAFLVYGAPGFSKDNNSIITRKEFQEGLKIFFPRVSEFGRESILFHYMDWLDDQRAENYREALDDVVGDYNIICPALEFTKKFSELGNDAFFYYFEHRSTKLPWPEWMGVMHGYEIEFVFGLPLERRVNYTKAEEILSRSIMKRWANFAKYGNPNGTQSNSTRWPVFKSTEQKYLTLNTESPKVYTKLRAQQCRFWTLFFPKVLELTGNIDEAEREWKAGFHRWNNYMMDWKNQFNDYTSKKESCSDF

NNc1ccc(C(=O)NCCCCNc2c3c(nc4ccccc24)CCCC3)cn1 [Nicotinamide hydrochloride analog, 6a]
IC50 [1]: 0.00145 µM
IC50 (Acetylcholinesterase): 0.44 µM

NNc1ccc(C(=O)NCCCCCNc2c3c(nc4ccccc24)CCCC3)cn1 [Nicotinamide hydrochloride analog, 6b]
IC50 (Acetylcholinesterase): 0.308 µM

NNc1ccc(C(=O)NCCCCCCCNc2c3c(nc4ccccc24)CCCC3)cn1 [Nicotinamide hydrochloride analog, 6c]
IC50 [1]: 0.00113 µM
IC50 (Acetylcholinesterase): 0.721 µM

From BindingDB's records for doi:10.1016/j.bioorg.2011.05.001 (Medical University of Lodz, 2011)
